Source: EPA's ToxValDB 9.5 (doi:10.2903/j.efsa.2009.190r)

Tests used:
[1] = test system: Rattus norvegicus; conditions: for NOAEL: inhalation
[2] = test system: Tagia sp.; conditions: acute; duration: 14 days; mortality
[3] = chronic, duration: 2 years, no effects
[4] = reproduction developmental, mortality
[5] = subchronic, duration: 90 days, no effects

SMILES	LD50 ([1]; acute, oral, mortality)	NOAEL [1, 3]	NOAEL [1, 4]	NOAEL [1, 5]	LC50 [2]	NOAEL ([1]; developmental, duration: 10 days, development)	NOAEL ([1]; subchronic, duration: 90 days, mortality)
[Mg+2].[Mg+2].[Mg+2].[P-3].[P-3] [Magnesium phosphide]	11.2 mg/kg-day	1.1 mg/kg-day	1.9 mg/kg-day	1.1 mg/kg-day	664 mg/kg		
P [Phosphine]		1.1 mg/kg-day	1.9 mg/kg-day	1.1 mg/kg-day		1.9 mg/kg-day	1.1 mg/kg-day
